# US20130012473A1, “COMBINED USE OF PHOSPHOLIPID AND SULFATE GROUPS-CARRYING POLYSACCHARIDES FOR INHIBITING METASTATIC SPREAD” (KTB TUMORFORSCHUNGSGESELLSCHAFT MBH, priority 2010, published 2013)
# Tests used:
# B16.F10 cells = experiment: LysoPC-mediated toxicity, cell viability by BrdU assay; format: cell-based, mouse
# Method: BrdU proliferation assay: Proliferation and viability were determined by BrdU and WST-1 assay (Roche Diagnostics GmbH, Penzberg, Germany) according to the manufacturer's instructions.
# LysoPC was toxic towards B16.F10 cells (p<0.001) at physiological concentrations (≧150 μM) in culture medium (DMEM plus 10% FCS). Thus, different amounts of BSA were added to reduce the concentration of cellular assessable LysoPC (monomolecular and micellar dissolved) and to therefore reduce LysoPC toxicity. Viability of the tumor cells was determined by BrdU assay and adding 10 mg BSA/ml, reduced cell viability was evident above 300 μM LysoPC. Using 20 mg/ml, reduced cell viability was evident above 450 μM LysoPC. Thus, to avoid toxicity of exogenous LysoPC (150 μM to 900 μM) towards the tumor cells during the LysoPC-removal-assay (FIG. 1), addition of 20 mg-40 mg BSA/ml DMEM was essential.
# [1] = tested on: VLA-4 adhesion of B16.F10 cells to VCAM-1; experiment: Parallel plate flow chamber assay, cell adhesion to immobilized VCAM-1; format: cell-based, mouse
# Method: Flow chamber assay: The interaction of B16.F10 cells with VCAM-1 Fc chimera under physiological flow conditions was analyzed on glass slides coated with VCAM-1 Fc chimera in a parallel plate flow chamber, as described in detail in our previous investigations (Fritzsche, J. et al., Thromb. Haemost. 100:1166-1175 (2008)).
# Example 2: Impact of LysoPC treatment of B16.F10 cells on adhesion receptor activity in vitro. In order to investigate the concentration and time dependent effects of LysoPC on the receptor mediated cell binding ability, VLA-4 adhesion of B16.F10 cells to a support-fixed VCAM-1 layer was investigated (FIG. 2A). […] The LysoPC effects on adhesion became amplified by repeated LysoPC feeding.
smiles,measurement,setting,value
CCCCCCCCCCCCCCCCC(=O)OC[C@@H](O)COP(=O)([O-])OCC[N+](C)(C)C [LysoPC],LysoPC concentration with reduced cell viability,B16.F10 cells; 10 mg BSA/ml added,above 300 μM
same,LysoPC concentration with reduced cell viability,B16.F10 cells; 20 mg/ml BSA added,above 450 μM
same,toxic LysoPC concentration,"B16.F10 cells; culture medium DMEM plus 10% FCS, no added BSA, p<0.001",≥ 150 µM
same,cell binding to support-fixed VCAM-1,[1]; repeated addition of 300 μM LysoPC (13 days),no effect in reducing the VLA-4 binding
same,cell binding to support-fixed VCAM-1,[1]; single incubation with 300 μM LysoPC for 72 h,did not mediate significant binding decrease
same,cell binding to support-fixed VCAM-1,[1]; single incubation with 450 μM LysoPC for 72 h before VLA-4 activation,significantly impaired the cell binding
same,cell binding to support-fixed VCAM-1,[1]; treated six times with 450 μM LysoPC (13 days),complete binding inhibition
